Data on one molecule can be found in patent US20200179294A1, “MANGANOPORPHYRIN-POLYPHENOL MULTILAYER CAPSULES AS RADICAL AND REACTIVE OXYGEN SPECIES SCAVENGERS” (THE UAB RESEARCH FOUNDATION, priority 2018, published 2020).

SMILES strings stand for the structures.

The data set can be described thus: Ellipsometry of dry TA/MnP-PVPON films at pH 5 and pH 2.5 (film stability). It is filed as physicochemical. How it is done: The stability of the MnP-PVPON/TA multilayers dried from pH=2.5 was examined since ionization of TA is minimized at this pH (below the pKa of TA), which could result in destabilization of the film.
Ellipsometry: Film thickness was measured using a M2000U spectroscopic ellipsometer (Woollam). Single-side polished silicon wafers 500-μm-thick (University Wafer) of 20 mm×50 mm were cleaned in a mixture of concentrated sulfuric acid and Nocromix (Godax Laboratories) for 24 hours, washed with DI water, dried with a stream of nitrogen (Airgas) and used immediately thereafter. First, a precursor layer of poly(ethyleneimine) (PEI, Sigma-Aldrich) was adsorbed onto the wafer surface from 1 mg mL^−1 PEI aqueous solution for 10 min. After that the deposition of TA, PVPON and MnP-PVPON onto silicon wafers coated with a PEI layer was performed using a 5-mL liquid flow-through cell (Woollam) at pH=5 and pH=7.2 (0.01 M phosphate buffer). The pH values of 0.01 M phosphate buffers were adjusted using 0.1 M HCl and NaOH aqueous solutions. Dry thickness measurements were performed between 400 and 1000 nm at 65, 70, and 75° angles of incidence, while wet thickness studies were monitored at 75° incidence angle. […] The thickness of silicon oxide was determined using known optical constants. […]

For the molecule `O=C(OC[C@H]1O[C@@H](OC(=O)c2cc(O)c(O)c(OC(=O)c3cc(O)c(O)c(O)c3)c2)[C@H](OC(=O)c2cc(O)c(O)c(OC(=O)c3cc(O)c(O)c(O)c3)c2)[C@@H](OC(=O)c2cc(O)c(O)c(OC(=O)c3cc(O)c(O)c(O)c3)c2)[C@@H]1OC(=O)c1cc(O)c(O)c(OC(=O)c2cc(O)c(O)c(O)c2)c1)c1cc(O)c(O)c(OC(=O)c2cc(O)c(O)c(O)c2)c1` [TA, tannic acid], the Layer thickness is on record as 1.8 nm and the Total thickness is listed as 4.1 nm.
